Assay results from PubChem BioAssay AID330 (DTP/NCI, 2004).
Where “and” joins values, the source holds several entries; their conditions need not be identical. Equal entries are not always repeated. Inconclusive results and toxic doses are left out.

Tested on: P388 leukemia ip, CD2F1 mice, survival T/C
Assay: NCI In Vivo Anticancer Drug Screen. Data for tumor model P388 Leukemia (intraperitoneal) in CD2F1 (CDF1) mice
Details: endpoint: median survival time, higher = longer survival
Outline: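 Mice carrying the transplanted tumor received test compound or vehicle. Survival was recorded in each group, and the value is the treated-group measurement divided by that of the vehicle-treated control group.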

[1] = dose: 50.0 mg/kg/injection, schedule: Q01DX005 (ip), vehicle: saline
[2] = dose: 100.0 mg/kg/injection, schedule: Q01DX005 (ip), vehicle: saline
[3] = dose: 100.0 mg/kg/injection, schedule: Q01DX001 (ip), vehicle: Klucel (hydroxypropylcellulose) (HPC)
[4] = dose: 60.0 mg/kg/injection, schedule: Q01DX005 (ip), vehicle: saline with Tween-80
[5] = dose: 120.0 mg/kg/injection, schedule: Q01DX005 (ip), vehicle: saline with Tween-80
[6] = dose: 240.0 mg/kg/injection, schedule: Q01DX005 (ip), vehicle: saline with Tween-80
[7] = dose: 50.0 mg/kg/injection, schedule: Q01DX009 (ip), vehicle: Klucel (hydroxypropylcellulose) (HPC)
[8] = dose: 100.0 mg/kg/injection, schedule: Q01DX009 (ip), vehicle: Klucel (hydroxypropylcellulose) (HPC)
[9] = dose: 200.0 mg/kg/injection, schedule: Q01DX009 (ip), vehicle: Klucel (hydroxypropylcellulose) (HPC)
[10] = dose: 200.0 mg/kg/injection, schedule: Q01DX009 (ip), vehicle: saline with Tween-80
[11] = dose: 50.0 mg/kg/injection, schedule: Q01DX005 (ip), vehicle: saline with Tween-80
[12] = dose: 100.0 mg/kg/injection, schedule: Q01DX005 (ip), vehicle: saline with Tween-80
[13] = dose: 6.25 mg/kg/injection, schedule: Q01DX005 (ip), vehicle: Klucel (hydroxypropylcellulose) (HPC)
[14] = dose: 12.5 mg/kg/injection, schedule: Q01DX005 (ip), vehicle: Klucel (hydroxypropylcellulose) (HPC)
[15] = dose: 50.0 mg/kg/injection, schedule: Q01DX009 (ip), vehicle: saline
[16] = dose: 100.0 mg/kg/injection, schedule: Q01DX009 (ip), vehicle: saline

Question: Which T/C (dose: 100.0 mg/kg/injection, schedule: Q04DX003 (ip), vehicle: saline) does the source give for CO/C=C1\CC(=O)N(c2ccccc2)C1=O here?
Answer: 106 % of control

Question: What about the T/C (dose: 200.0 mg/kg/injection, schedule: Q04DX003 (ip), vehicle: saline) of the same molecule?
Answer: 100 % of control

Question: What about the T/C (dose: 400.0 mg/kg/injection, schedule: Q04DX003 (ip), vehicle: saline) of the same molecule?
Answer: 97 % of control

Question: With CSC(=O)NCCCN(C)C as the molecule, how does the T/C [1] read?
Answer: 106 % of control

Question: What about the T/C [2] of the same molecule?
Answer: 107 % of control

Question: And the T/C (dose: 200.0 mg/kg/injection, schedule: Q01DX005 (ip), vehicle: saline)?
Answer: 104 % of control

Question: With Cc1cnc(F)nc1F as the molecule, how does the T/C [1] read?
Answer: 94 % of control

Question: And the T/C [2]?
Answer: 97 % of control

Question: O=S(=O)(C(c1ccc(Cl)cc1)c1ccc(Cl)cc1)C(Cl)(Cl)Cl was tested. Which T/C (dose: 25.0 mg/kg/injection, schedule: Q01DX001 (ip), vehicle: Klucel (hydroxypropylcellulose) (HPC)) did it give?
Answer: 108 % of control

Question: What about the T/C (dose: 50.0 mg/kg/injection, schedule: Q01DX001 (ip), vehicle: Klucel (hydroxypropylcellulose) (HPC)) of the same molecule?
Answer: 102 % of control

Question: What about the T/C [3] of the same molecule?
Answer: 102 % of control

Question: O=[N+]([O-])c1ccc(N=Nc2ccc(N(CCCl)CCCl)cc2)cc1 was tested. Which T/C (dose: 50.0 mg/kg/injection, schedule: Q04DX003 (ip), vehicle: Klucel (hydroxypropylcellulose) (HPC)) did it give?
Answer: 100 % of control

Question: And the T/C (dose: 100.0 mg/kg/injection, schedule: Q04DX003 (ip), vehicle: Klucel (hydroxypropylcellulose) (HPC))?
Answer: 100 % of control

Question: What about the T/C (dose: 200.0 mg/kg/injection, schedule: Q04DX003 (ip), vehicle: Klucel (hydroxypropylcellulose) (HPC)) of the same molecule?
Answer: 106 % of control

Question: What does the source list for CCCCCCCCCCCC(=O)OOC(C)(C)C?
Answer: T/C [4]: 100 % of control; T/C [5]: 102 % of control; T/C [6]: 97 % of control

Question: Which results are given for COC(=O)/C=C(/C(=O)OC)N(C)Cc1ccccc1?
Answer: T/C (dose: 25.0 mg/kg/injection, schedule: Q01DX009 (ip), vehicle: Klucel (hydroxypropylcellulose) (HPC)): 97 % of control; T/C [7]: 104 % of control; T/C [8]: 98 % of control; T/C (dose: 100.0 mg/kg/injection, schedule: Q04DX003 (ip), vehicle: saline with Tween-80): 99 % of control; T/C [9]: 101 % of control; T/C (dose: 200.0 mg/kg/injection, schedule: Q04DX003 (ip), vehicle: saline with Tween-80): 99 % of control; T/C (dose: 400.0 mg/kg/injection, schedule: Q04DX003 (ip), vehicle: saline with Tween-80): 101 % of control

Question: How did the T/C (dose: 100.0 mg/kg/injection, schedule: Q01DX001 (ip), vehicle: saline with Tween-80) turn out when CN(C)CCNC(=O)c1noc2c1CSc1ccccc1-2 was run?
Answer: 101 % of control

Question: And the T/C (dose: 200.0 mg/kg/injection, schedule: Q01DX001 (ip), vehicle: saline with Tween-80)?
Answer: 101 % of control

Question: And the T/C (dose: 400.0 mg/kg/injection, schedule: Q01DX001 (ip), vehicle: saline with Tween-80)?
Answer: 100 % of control

Question: With Cn1c(=O)c2nc3n(c2n(C)c1=O)CCC(C)(c1ccccc1)O3 (stereo not given) as the molecule, how does the T/C [4] read?
Answer: 96 % of control

Question: What about the T/C [5] of the same molecule?
Answer: 91 % of control

Question: What about the T/C [6] of the same molecule?
Answer: 91 % of control

Question: What does the source list for CCN(CC)C(=O)Nc1ccc(OCC(O)CNC(C)(C)C)c(C(C)=O)c1 (stereo not given)?
Answer: T/C (dose: 50.0 mg/kg/injection, schedule: Q01DX009 (ip), vehicle: water): 114 % of control; T/C (dose: 100.0 mg/kg/injection, schedule: Q01DX009 (ip), vehicle: water): 102 % of control; T/C (dose: 200.0 mg/kg/injection, schedule: Q01DX009 (ip), vehicle: water): 105 % of control

Question: With O=C1c2ccccc2C(=O)N1C[P+](c1ccccc1)(c1ccccc1)c1ccccc1 as the molecule, how does the T/C (dose: 0.78 mg/kg/injection, schedule: Q01DX009 (ip), vehicle: water) read?
Answer: 102 % of control

Question: And the T/C (dose: 1.56 mg/kg/injection, schedule: Q01DX009 (ip), vehicle: water)?
Answer: 106 % of control

Question: What about the T/C (dose: 3.13 mg/kg/injection, schedule: Q01DX009 (ip), vehicle: water) of the same molecule?
Answer: 106 % of control

Question: And the T/C (dose: 5.56 mg/kg/injection, schedule: Q01DX009 (ip), vehicle: water)?
Answer: 123 % of control

Question: What about the T/C (dose: 25.0 mg/kg/injection, schedule: Q01DX009 (ip), vehicle: water) of the same molecule?
Answer: 98 % of control

Question: With CCN(CCO)CCNc1ccc(CO)c2sc3cc(Cl)ccc3c(=O)c12 as the molecule, how does the T/C (dose: 88.0 mg/kg/injection, schedule: Q01DX009 (ip), vehicle: saline with Tween-80) read?
Answer: 105 % of control

Question: And the T/C (dose: 133.0 mg/kg/injection, schedule: Q01DX009 (ip), vehicle: saline with Tween-80)?
Answer: 113 % of control

Question: And the T/C [10]?
Answer: 112 % of control

Question: And the T/C (dose: 300.0 mg/kg/injection, schedule: Q01DX009 (ip), vehicle: saline with Tween-80)?
Answer: 102 % of control

Question: Which results are given for Cc1cc(OP2(=O)Nc3cccc4cccc(c34)N2)ccc1Cl?
Answer: T/C [11]: 89 % of control; T/C [12]: 89 % of control

Question: Cn1c(Br)c(C=O)c2ccccc21 was tested. Which T/C [3] did it give?
Answer: 100 % of control

Question: What about the T/C (dose: 200.0 mg/kg/injection, schedule: Q01DX001 (ip), vehicle: Klucel (hydroxypropylcellulose) (HPC)) of the same molecule?
Answer: 102 % of control

Question: And the T/C (dose: 400.0 mg/kg/injection, schedule: Q01DX001 (ip), vehicle: Klucel (hydroxypropylcellulose) (HPC))?
Answer: 105 % of control

Question: Which results are given for Cc1cccc(-n2c(C)nc3c(c(C)c(C)n3-c3ccccc3)c2=N)c1?
Answer: T/C [13]: 97 % of control; T/C [14]: 100 % of control; T/C (dose: 25.0 mg/kg/injection, schedule: Q01DX005 (ip), vehicle: Klucel (hydroxypropylcellulose) (HPC)): 99 % of control

Question: Which results are given for ClCc1cnc[nH]1?
Answer: T/C [15]: 116 % of control; T/C [16]: 111 % of control

Question: Which T/C [11] does the source give for CCCCNC(=O)c1cc(NC(=O)c2ccc(C(=O)Nc3cc(C(=O)NCCCC)cc(C4N=CCN4)c3)cc2)cc(C2=NCCN2)c1 (stereo not given) here?
Answer: 94 % of control

Question: What about the T/C [12] of the same molecule?
Answer: 95 % of control

Question: Which T/C (dose: 1.56 mg/kg/injection, schedule: Q01DX009 (ip), vehicle: saline) does the source give for CC(C)=CCC/C(C)=C/CC1=C(O)c2ccccc2C(=O)C1=O here?
Answer: 98 % of control

Question: What about the T/C (dose: 3.12 mg/kg/injection, schedule: Q01DX009 (ip), vehicle: saline) of the same molecule?
Answer: 100 % of control

Question: What about the T/C (dose: 6.25 mg/kg/injection, schedule: Q01DX009 (ip), vehicle: saline) of the same molecule?
Answer: 100 % of control

Question: What about the T/C (dose: 12.5 mg/kg/injection, schedule: Q01DX009 (ip), vehicle: saline) of the same molecule?
Answer: 104 % of control and 94 % of control

Question: For COC(=O)/C(=C\c1ccncc1)c1cccc2ccccc12, which T/C (dose: 25.0 mg/kg/injection, schedule: Q01DX009 (ip), vehicle: saline with Tween-80) is on record?
Answer: 101 % of control

Question: And the T/C (dose: 50.0 mg/kg/injection, schedule: Q01DX009 (ip), vehicle: saline with Tween-80)?
Answer: 98 % of control

Question: What about the T/C (dose: 100.0 mg/kg/injection, schedule: Q01DX009 (ip), vehicle: saline with Tween-80) of the same molecule?
Answer: 104 % of control

Question: What about the T/C [10] of the same molecule?
Answer: 99 % of control

Question: How did the T/C (dose: 12.5 mg/kg/injection, schedule: Q01DX009 (ip), vehicle: distilled water + Tween-80) turn out when COc1cc2ccnc(/C=N\O)c2cc1OC was run?
Answer: 102 % of control

Question: And the T/C (dose: 25.0 mg/kg/injection, schedule: Q01DX009 (ip), vehicle: distilled water + Tween-80)?
Answer: 116 % of control

Question: What about the T/C (dose: 50.0 mg/kg/injection, schedule: Q01DX009 (ip), vehicle: distilled water + Tween-80) of the same molecule?
Answer: 109 % of control

Question: And the T/C (dose: 100.0 mg/kg/injection, schedule: Q01DX009 (ip), vehicle: distilled water + Tween-80)?
Answer: 102 % of control

Question: And the T/C (dose: 200.0 mg/kg/injection, schedule: Q01DX009 (ip), vehicle: distilled water + Tween-80)?
Answer: 91 % of control

Question: And the T/C (dose: 400.0 mg/kg/injection, schedule: Q01DX009 (ip), vehicle: distilled water + Tween-80)?
Answer: 93 % of control

Question: For CC1=CC[N+](C)(C)C(C(N)=O)C1 (stereo not given), which T/C [1] is on record?
Answer: 108 % of control

Question: And the T/C [2]?
Answer: 105 % of control

Question: What does the source list for COn1nnc2cc(Cl)ccc21?
Answer: T/C (dose: 100.0 mg/kg/injection, schedule: Q04DX002 (ip), vehicle: saline with Tween-80): 107 % of control; T/C (dose: 200.0 mg/kg/injection, schedule: Q04DX002 (ip), vehicle: saline with Tween-80): 98 % of control; T/C (dose: 400.0 mg/kg/injection, schedule: Q04DX002 (ip), vehicle: saline with Tween-80): 98 % of control

Question: Which results are given for CON(C)c1nc(N(C)C)nc(N(C)C)n1?
Answer: T/C [15]: 91 % of control; T/C [16]: 98 % of control; T/C (dose: 200.0 mg/kg/injection, schedule: Q01DX009 (ip), vehicle: saline): 96 % of control

Question: Which T/C (dose: 1.56 mg/kg/injection, schedule: Q01DX005 (ip), vehicle: Klucel (hydroxypropylcellulose) (HPC)) does the source give for O=C(Nc1ccc(NC2=NCCN2)cc1)c1ccc(C(=O)Nc2ccc(NC3=NCCN3)cc2)c([N+](=O)[O-])c1 here?
Answer: 116 % of control

Question: What about the T/C [13] of the same molecule?
Answer: 158 % of control

Question: And the T/C [14]?
Answer: 158 % of control

Question: Which T/C [7] does the source give for CCO/C=N/c1[nH]c(C)c(C)c1C#N here?
Answer: 93 % of control

Question: And the T/C [8]?
Answer: 100 % of control

Question: And the T/C [9]?
Answer: 105 % of control

Question: What does the source list for O=C(O)CCC(Nc1ncnc2nc[nH]c12)C(=O)O (stereo not given)?
Answer: T/C [11]: 92 % of control; T/C [12]: 97 % of control; T/C (dose: 200.0 mg/kg/injection, schedule: Q01DX005 (ip), vehicle: saline with Tween-80): 89 % of control
